Assay results taken from patent US20120220520A1, “BIOAVAILABLE COMBINATIONS FOR HCV TREATMENT” (priority 2006, published 2012).
Values joined by “and” are separate entries in the source; they are usually repeats but may differ in a detail not shown here. Equal entries are not always repeated.

Assay: In vitro metabolic blocking of HCV NS3/4a protease inhibitors by compound of formula (II) in human liver microsomes
Type: in vitro ADME
Details: for % Detected Compound, Incubation time: 30′, Compound of formula (II) / % Detected Compound, Incubation time: 120′, Compound of formula (II): 3 μM test compound + 10 μM compound of formula (II); for % Detected Compound, Incubation time: 30′, Compound of formula (II) / % Detected Compound, Incubation time: 120′, Compound of formula (II) / % Detected Compound, Incubation time: 30′, No Booster / % Detected Compound, Incubation time: 120′, No Booster: human liver microsomes 1 mg/ml, 37° C., % of initial concentration; for % Detected Compound, Incubation time: 30′, Compound of formula (II) / % Detected Compound, Incubation time: 30′, No Booster: 30 min; for % Detected Compound, Incubation time: 120′, Compound of formula (II) / % Detected Compound, Incubation time: 120′, No Booster: 120 min; for % Detected Compound, Incubation time: 30′, No Booster / % Detected Compound, Incubation time: 120′, No Booster: 3 μM test compound
Experimental: Different HCV NS3/4a protease inhibitors were tested in a metabolic blocking experiment using 3 μM test compound together with 10 μM of compound of formula (II) acting as a cytochrome P450 inhibitor (or booster).
Test compounds and compound of formula (II) were added to human liver microsomes (protein concentration 1 mg/ml) suspended in potassium phosphate buffer (pH=7.4), to get final reaction mixture concentrations of 3 μM test compound and 10 μM of compound of formula (II). In the non-boosted parallel reactions, compound of formula (II) was not added. Boiled human liver microsomes were used for blank experiments. After addition (in a 1:3 ratio) of a cofactor mixture consisting of β-nicotinamide adenine dinucleotide phosphate (β-NADP, 0.5 mg/ml, 653.2 μM), D-Glucose-6-phosphate (2 mg/ml, 7.1 mM), Glucose-6-phosphate dehydrogenase (1.5 U/ml) in 2% NaHCO3, the reaction mixture was incubated at 37° C. for 30 or 120 minutes after which the reaction was stopped by increasing the temperature to 95° C. Test compound concentrations were determined using HPLC-MS.
Values are percentages of test compound detected after the indicated incubation times as compared to the initial test compound concentration. In Table 3, each value is the mean of the results of two independent experiments. In Table 4, each value is the result of an independent experiment.

[1] = mean of two independent experiments
[2] = each value one independent experiment

| % Detected Compound, Incubation time: 30′, Compound of formula (II) [1] [%] | % Detected Compound, Incubation time: 120′, Compound of formula (II) [1] [%] | % Detected Compound, Incubation time: 30′, No Booster [1] [%] | % Detected Compound, Incubation time: 120′, No Booster [1] [%] | % Detected Compound, Incubation time: 30′, Compound of formula (II) [2] | % Detected Compound, Incubation time: 120′, Compound of formula (II) [2] | % Detected Compound, Incubation time: 30′, No Booster [2] | % Detected Compound, Incubation time: 120′, No Booster [2] | blocking of test compound metabolisation (10 μM compound of formula (II) added to 3 μM test compound, human liver microsomes) | SMILES |
| --- | --- | --- | --- | --- | --- | --- | --- | --- | --- |
| 151 | 135 | 109 | 25 |  |  |  |  |  | COc1ccc2c(O[C@@H]3C[C@H]4C(=O)N[C@]5(C(=O)NS(=O)(=O)C6CC6)C[C@H]5/C=C\CCCCN(C)C(=O)N4C3)cc(-c3nc(C(C)C)cs3)nc2c1 [Compound 21] |
| 131 | 196 | 42 | 0 |  |  |  |  |  | COc1ccc2c(O[C@@H]3C[C@H]4C(=O)N[C@]5(C(=O)NS(=O)(=O)C6CC6)C[C@H]5/C=C\CCCCCNC(=O)N4C3)cc(-c3nc(C(C)C)cs3)nc2c1 [Compound 18] |
| 128 | 101 | 16 | 0 |  |  |  |  |  | COc1ccc2c(O[C@@H]3C[C@H]4C(=O)N[C@]5(C(=O)NS(=O)(=O)C6CC6)C[C@H]5/C=C\CCCCCCC(=O)N4C3)cc(-c3nc(C(C)C)cs3)nc2c1 [Compound 26] |
|  |  |  |  |  |  |  |  | almost complete blocking | CC(C)CN(C[C@H](O)[C@@H](Cc1ccccc1)NC(=O)OCc1cncs1)S(=O)(=O)c1ccc2nc(N)oc2c1 [compound of formula (II)] |

More lines, now with the values behind:

| SMILES | % Detected Compound, Incubation time: 30′, Compound of formula (II) [1] [%] | % Detected Compound, Incubation time: 120′, Compound of formula (II) [1] [%] | % Detected Compound, Incubation time: 30′, No Booster [1] [%] | % Detected Compound, Incubation time: 120′, No Booster [1] [%] | % Detected Compound, Incubation time: 30′, Compound of formula (II) [2] | % Detected Compound, Incubation time: 120′, Compound of formula (II) [2] | % Detected Compound, Incubation time: 30′, No Booster [2] | % Detected Compound, Incubation time: 120′, No Booster [2] | blocking of test compound metabolisation (10 μM compound of formula (II) added to 3 μM test compound, human liver microsomes) |
| --- | --- | --- | --- | --- | --- | --- | --- | --- | --- |
| COc1ccc2c(O[C@@H]3C[C@H]4C(=O)N[C@]5(C(=O)O)C[C@H]5/C=C\CCCCC[C@H](NC(=O)OC5CCCC5)C(=O)N4C3)cc(-c3csc(NC(C)C)n3)nc2c1 [BILN-2061, reference compound] | 163 | 128 | 129 | 76 |  |  |  |  |  |
| COc1ccc2c(O[C@@H]3C[C@H]4C(=O)N[C@]5(C(=O)NS(=O)(=O)C6CC6)C[C@H]5/C=C\CCCCN(C)C(=O)[C@@H]4C3)cc(-c3nc(C(C)C)cs3)nc2c1C [Compound 13] |  |  |  |  | 43% and 83% | 51% and 95% | 90% and 87% | 89% and 82% |  |
| COc1ccc2c(O[C@@H]3C[C@H]4C(=O)N[C@]5(C(=O)NS(=O)(=O)C6CC6)C[C@H]5/C=C\CCCCN(C)C(=O)[C@@H]4C3)cc(-c3nc(C(C)C)cs3)nc2c1 [Compound 7] | 166 | 160 | 141 | 48 |  |  |  |  |  |
